Literature values in paper PMC3530844 (ACS medicinal chemistry letters, 2012).

Legend:
hD2 receptors = hD2 receptors (Homo sapiens, UniProt P14416); conditions: [35S]GTPγS; ref Ghosh et al., J. Med. Chem. 2010, 53, 2114-2125
hD3 receptors = hD3 receptors (Homo sapiens, UniProt P35462); conditions: [35S]GTPγS; ref Ghosh et al., J. Med. Chem. 2010, 53, 2114-2125
Sequence of hD3 receptors (P35462 whole entry): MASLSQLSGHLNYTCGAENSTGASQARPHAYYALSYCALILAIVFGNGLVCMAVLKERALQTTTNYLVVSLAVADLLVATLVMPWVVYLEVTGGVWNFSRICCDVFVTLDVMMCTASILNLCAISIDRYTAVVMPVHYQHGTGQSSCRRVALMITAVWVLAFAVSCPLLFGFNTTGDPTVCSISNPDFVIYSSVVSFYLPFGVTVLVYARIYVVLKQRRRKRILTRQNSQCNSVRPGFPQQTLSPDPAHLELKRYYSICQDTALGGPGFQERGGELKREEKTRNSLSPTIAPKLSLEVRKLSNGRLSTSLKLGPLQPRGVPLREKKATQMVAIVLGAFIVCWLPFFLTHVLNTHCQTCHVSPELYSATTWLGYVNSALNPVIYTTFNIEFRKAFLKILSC

Sequence of hD2 receptors (P14416 whole entry): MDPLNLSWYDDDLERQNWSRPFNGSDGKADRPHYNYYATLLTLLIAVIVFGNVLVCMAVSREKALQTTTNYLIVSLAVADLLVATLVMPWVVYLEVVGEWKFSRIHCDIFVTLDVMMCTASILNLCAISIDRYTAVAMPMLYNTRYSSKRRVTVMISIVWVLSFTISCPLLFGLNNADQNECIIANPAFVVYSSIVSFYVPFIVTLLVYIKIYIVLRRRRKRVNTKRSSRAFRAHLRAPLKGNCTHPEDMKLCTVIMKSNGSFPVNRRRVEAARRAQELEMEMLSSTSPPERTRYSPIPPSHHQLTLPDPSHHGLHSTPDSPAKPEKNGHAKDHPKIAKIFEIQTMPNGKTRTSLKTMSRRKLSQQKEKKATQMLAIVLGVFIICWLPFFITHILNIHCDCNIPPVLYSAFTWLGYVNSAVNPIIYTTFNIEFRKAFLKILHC

## CCCN(CCC)CCc1cccc2c1CC(=O)N2 [Ropinirole]
hD2 receptors
  %Emax hCHO-D2: 74 ± 0.9%
hD3 receptors
  %Emax hCHO-D3: 67 ± 8%
